Results: US20090203711A1, “Inhibitors of P38 Map Kinase” (CHROMA THERAPEUTICS LTD., priority 2006, published 2009)
Counter-ions that a name gives are not always drawn.

What was measured:
human whole blood = assay: LPS-stimulation of human whole blood, TNF-α release by ELISA; type: cell-based; details: LPS 100 ng/ml, 6 hrs, inhibitor added 2 hrs before, read-out: Inhibitor activity versus human whole blood TNFα release
Method: LPS-Stimulation of Human Whole Blood
Whole blood was taken by venous puncture using heparinised vacutainers (Becton Dickinson) and diluted in an equal volume of RPMI 1640 tissue culture media (Sigma). 100 μl was plated in V-bottomed 96 well tissue culture treated plates. 2 hrs after the addition of the inhibitor in 100 μl of RPMI 1640 media, the blood was stimulated with LPS (E. coli strain 005:B5, Sigma) at a final concentration of 100 ng/ml and incubated at 37° C. in 5% CO2 for 6 hrs. TNF-α levels were measured from cell-free supernatants by sandwich ELISA (R&D Systems #QTA00B)

THP-1 cells = assay: LPS-stimulation of THP-1 cells, TNF-α release by ELISA; type: cell-based; details: Homo sapiens, LPS 1 μg/ml, 6 hrs, inhibitor added 2 hrs before, read-out: Inhibitor activity versus THP-1 TNFα release
Method: LPS-Stimulation of THP-1 Cells
THP-1 cells were plated in 100 μl at a density of 4×10^4 cells/well in V-bottomed 96 well tissue culture treated plates and incubated at 37° C. in 5% CO2 for 16 hrs. 2 hrs after the addition of the inhibitor in 100 μl of tissue culture media, the cells were stimulated with LPS (E coli strain 005:B5, Sigma) at a final concentration of 1 μg/ml and incubated at 37° C. in 5% CO2 for 6 hrs. TNF-α levels were measured from cell-free supernatants by sandwich ELISA (R&D Systems #QTA00B)

IC50 (human whole blood)	Structure (SMILES)	IC50 (THP-1 cells)
100 to 1000 nM	Nc1c(C(=O)c2ccc(F)cc2)ccc(=O)n1-c1c(F)cc(OCCC[C@H](N)C(=O)OC2CCCC2)cc1F [Example 7]	
100 to 1000 nM	Nc1c(C(=O)c2ccc(F)cc2F)ccc(=O)n1-c1c(F)cc(OCC[C@@H](N)C(=O)OC2CCCC2)cc1F [Example 4, Cyclopentyl (R)-2-Amino-4-{4-[6-amino-5-(2,4-difluorobenzoyl)-2-oxo-2H-pyridin-1-yl]-3,5-difluorophenoxy}butanoate Trifluoroacetate]	
100 to 1000 nM	CC(C)(C)OC(=O)[C@@H](N)CCCOc1cc(F)c(-n2c(N)c(C(=O)c3ccc(F)cc3F)ccc2=O)c(F)c1 [Example 6, Tert-Butyl (S)-2-Amino-5-{4-[6-amino-5-(2,4-difluorobenzoyl)-2-oxo-2H-Pyridin-1-yl]-3,5-difluorophenoxy}pentanoate]	

Second part, the compound before the results:

Structure (SMILES)	IC50 (human whole blood)	IC50 (THP-1 cells)
CC(C)(C)OC(=O)N[C@@H](CCCOc1cc(F)c(-n2c(N)c(C(=O)c3ccc(F)cc3F)ccc2=O)c(F)c1)C(=O)OC1CCCC1 [Intermediate 1, Cyclopentyl (S)-5-{4-[6-Amino-5-(2,4-difluorobenzoyl)-2-oxo-2H-pyridin-1-yl]-3,5-difluorophenoxy}-2-tert-butoxycarbonylamino Pentanoate]		100 to 1000 nM
CC(C)(C)OC(=O)N[C@@H](CCOc1cc(F)c(-n2c(N)c(C(=O)c3ccc(F)cc3F)ccc2=O)c(F)c1)C(=O)OC1CCCC1 [Intermediate 2, Cyclopentyl (S)-4-{4-[6-Amino-5-(2,4-difluorobenzoyl)-2-oxo-2H-pyridin-1-yl]-3,5-difluorophenoxy}-2-tert-butoxycarbonylaminobutyrate]		100 to 1000 nM
